The values that follow come from patent publication US11633383B2, “Dosage principle for drugs useful for treating neoplastic diseases” (Basilea Pharmaceutica International AG, priority 2017, dated 2023).

Series [1] in a line: Plasma concentrations of BAL27862 (Cmax, AUC) in patients, daily oral administration study. The class given is in vivo. The conditions noted are these: human, BAL101553 dihydrochloride daily oral, N=7; for AUC: plasma, BAL27862, compared as weekly exposure; for Cmax: BAL27862 in plasma. The procedure: (§1) In another clinical trial BAL101553 (dihydrochloride salt) was given as a daily oral administration in treatment cycles consisting of 28 days of continuous, daily administration to patients in a fasted state (comparative Example).
(§2) BAL101553 (dihydrochloride salt) for oral administration is prepared as a HPMC capsules containing 1 mg active ingredient, 98 mg of mannitol and 1 mg magnesium stearate, or 5 mg active ingredient, 94 mg mannitol and 1 mg magnesium stearate.
Daily oral administration study: on day 1 of cycle 1 blood samples were collected at pre-dose and where clinically feasible 0.5, 1, 2, 3, 4, 6, 8 and 24 hours after intake of study medication.
(§3) Venous blood samples were collected into chilled 2 ml plastic tubes containing K2-EDTA as an anticoagulant mixed with 20 μl 2M citric acid and kept on ice for 15 minutes. Approximately 1.0 ml plasma was prepared by centrifugation at 1′500×g for 10-15 minutes at 4° C., transferred into new vials and stored at −80° C. until analysis. Plasma concentrations of BAL27862 were determined with a fully validated LC-MS/MS method:
(§4) 50 μl of acetonitrile was added to 25 μl plasma containing stable labelled internal standards (IS). After vortexing, the samples were centrifuged for 10 minutes at 50′000×g at 8° C. and 50 μl of the supernatant was transferred to an empty auto-sampler vial. The extract was separated by liquid chromatography, performed using water (0.1% formic acid) as mobile phase A and acetonitrile (0.1% formic acid) as mobile phase B. The column used was a YMC Hydroshere C18, 2.1×33 mm, 3 μm (YMC Co, Kyoto, Japan). The injection volume was set to 2 μL (full loop).
(§5) Detection was carried out using a triple-stage quadrupole MS/MS (TSQ Vantage, Thermo Fisher
(§6) Scientific, San Jose, Calif., USA) in the selected reaction monitoring mode.
(§7) The following calibration range was applied:
(§8) 1 to 1000 ng/ml for BAL27862 in human plasma ([…], citric acid)
(§9) Calculation of Pharmacokinetic Parameters (exposure [Area Under the Curve—AUC] and peak [Cmax] drug levels) for Human Samples:
(§10) AUC and Cmax of BAL27862 were calculated by non-compartmental analysis (NCA) using Phoenix WinNonLin 7.0 software from Certara.

Series [2] can be described thus: Plasma concentrations of BAL27862 (Cmax, AUC) in patients, 2-hour intravenous infusion study. The series is classed as in vivo, human. The conditions noted are these: mean. As for the experimental part:
(§11) In one clinical trial BAL101553 (dihydrochloride salt) was given as a 2-hour infusion on days 1, 8, and 15 of each 28-day cycle (comparative Example).
(§12) BAL101553 (dihydrochloride salt) for intravenous administration is prepared by reconstitution of lyophilized BAL101553 (dihydrochloride salt) with saline solution or Ringer lactate solution, prior to further dilution with Ringer lactate for intravenous infusion to the patient. The 48-hour infusion is administered via an elastomeric pump (Baxter) using an infusion volume of 120 ml or 240 ml.
2-hour intravenous infusion study: on day 1 of cycle 1 blood samples were collected at pre-dose and where clinically feasible 0.5, 1, 2, 3, 4, 6, 8 and 24 hours after dosing.
as §3, §4, §5, §6, §7, §8, §9, §10

Series [3] can be described thus: Plasma concentrations of BAL27862 (Cmax, AUC) in patients, 48-hour intravenous infusion study. The class given is in vivo, human. The note with it: for AUClast / Cmax: BAL27862 in plasma; for AUC: plasma, BAL27862, compared as weekly exposure. The procedure: (§13) In another clinical trial BAL101553 (dihydrochloride salt) was given as a 48-hour infusion on days 1, 8 and 15 of each 28 day cycle.
as §12
48-hour intravenous infusion study: on day 1 of cycle 1 blood samples were collected at pre-dose and where clinically feasible 0.5, 1, 2, 4, 8, 24, 30, 48, 52, 54, 72, and 168 hours after dosing.
as §3, §4, §5, §6, §7, §8, §9, §10

In series [4] the test system is tumour. Briefly: Clinical trials of BAL101553: tumour response. The series is classed as in vivo, human.
Text: as §13, §1

Series [5] can be described thus: Blood pressure measurements in patients treated with BAL101553. The series is classed as in vivo, human. The note with it: cycle 1 day 1. As for the experimental part: On day 1 of cycle 1 of the 2-hour and 48-hour intravenous infusion studies systolic and diastolic blood pressures were measured using a calibrated, automated blood pressure device at various time points, i.e. prior to the first administration of study drug and then at least hourly for the first 4 hours after start of dosing.

The conditions of series [6]: cited from earlier work.
A short description of series [7]: Clinical trials of BAL101553: maximum tolerated dose and adverse drug reactions. The series is classed as in vivo, human.
Text: as §11, §13, §1, §12, §2

For series [8] the following is noted: cited from earlier work. The source holds these as a separate data set.
Setting [9] is: BAL101553 dihydrochloride 45 mg/m^2, 2 hours infusion, N=8, cycle 1 day 1.
The mark [10] stands for this setting: BAL101553 dihydrochloride 60 mg/m^2, 2 hours infusion, N=21, cycle 1 day 1.
[11] abbreviates: BAL101553 dihydrochloride 45 mg/m^2, 48 hours infusion, mean, N=3, cycle 1 day 1.
Setting [12] is: BAL101553 dihydrochloride 70 mg/m^2, 48 hours infusion, mean, N=4, cycle 1 day 1.
The mark [13] stands for this setting: BAL101553 dihydrochloride 90 mg/m^2, 48 hours infusion, mean, N=4, cycle 1 day 1.
[14] abbreviates: 2-hour infusion on study days 1, 8 and 15, q28 days, 2016 ASCO poster.

The term AUC denotes concentration integrated over time.

SMILES strings stand for the structures.

As to `N#CCCNc1nonc1-c1nc2ccccc2n1CC(=O)c1ccc(N)cc1` [BAL27862, 3-(4-{1-[2-(4-Amino-phenyl)-2-oxo-ethyl]-1H-benzoimidazol-2-yl}-furazan-3-ylamino)-propionitrile], the area under the curve (AUC) is 8400 ng·h/mL in series [1] (16 mg); 12200 ng·h/mL in series [1] (20 mg); 8580 ng·h/mL in series [3] (human, intravenous, BAL101553 dihydrochloride 48-hour infusion, 70 mg/m^2, N=9); 13500 ng·h/mL in series [3] (human, intravenous, BAL101553 dihydrochloride 48-hour infusion, 90 mg/m^2, N=4). Further, the Cmax in series [1] (16 mg) is 131 ng/mL; in series [1] (20 mg), 134 ng/mL; in series [2] (setting [9]), 356 ng/m; in series [2] (setting [10]), 498 ng/m; in series [3] (setting [11]) it was 77.7 ng/m; in series [3] (setting [12]), 152 ng/m. Moreover, the Cmax in series [3] (setting [13]) came to 238 ng/m; in series [3] (human, intravenous, BAL101553 dihydrochloride 48-hour infusion, 70 mg/m^2, N=9, read-out: Cmax (mean, ng/ml)) it was 148 ng/mL; in series [3] (human, intravenous, BAL101553 dihydrochloride 48-hour infusion, 90 mg/m^2, N=4, read-out: Cmax (mean, ng/ml)) it was 238 ng/mL. For the same molecule, the AUClast in series [2] (setting [9]) was determined as 4340 h*ng/m; in series [2] (setting [10]) it was 6040 h*ng/m; in series [3] (setting [11]) it was 3830 h*ng/m; in series [3] (setting [12]) it was 9030 h*ng/m; in series [3] (setting [13]) it was 12000 h*ng/m. Moreover, the “variability of pharmacokinetic exposure (AUC)” value in series [3] (48-hour dose regimen versus daily oral regimen) is “lower variability”.
As to `N#CCCNc1nonc1-c1nc2ccccc2n1CC(=O)c1ccc(NC(=O)[C@@H](N)CCCCN)cc1` [BAL101553, (S)-2,6-Diamino-hexanoic acid [4-(2-{2-[4-(2-cyano-ethylamino)-furazan-3-yl]-benzoimidazol-1-yl}-acetyl)-phenyl]-amide], the tumour response result in series [4] (48-hour infusion regimen, MTD dose (70 mg/m^2)) is on record as “partial tumour response in a patient”. For the same molecule, in series [4] (daily oral dose regimen, any dose), the objective responses result is on record as “no objective responses were observed”. The “change from baseline in systolic and diastolic blood pressure” value in series [5] (infused over 48 hours, 45 or 70 mg/m^2) is “neutral blood pressure profile or a minor average change from baseline”; in series [5] (infusion duration of 2 hours, 45 or 60 mg/m^2) it was “distinct changes from baseline”. The water solubility result in series [6] was “highly water-soluble”. Moreover, the “troponin elevation indicative of myocardial damage” value was “Three patients” in series [7] (45 mg/m^2 or 60 mg/m^2, 2-hour infusion) and “not observed” in series [7] (45 mg/m^2 or 70 mg/m^2, 48-hour infusion). Besides, in series [7] (90 mg/m^2 (supra-MTD), 48-hour infusion regimen), the “Grade 4 hyponatremia” value is “no observation of Grade 4 hyponatremia”. In addition, the “maximum tolerated dose (MTD)” value is 70 mg/m^2 in series [7] (48-hour infusion on days 1, 8 and 15 of each 28 day cycle); 16 mg/day in series [7] (daily oral administration, 28-day cycles, fasted state). The “Serious Grade 4 adverse drug reactions” value in series [7] (48-hour infusion, 70 mg/m^2, N=9) is reported as “None”; in series [7] (48-hour infusion, 90 mg/m^2, N=4) it was “None”; in series [7] (daily oral, 16 mg, N=7), “None”; in series [7] (daily oral, 20 mg, N=7), 2 patients with. Besides, the “serious Grade 4 hyponatremia” value in series [7] (daily oral dose of 20 mg/day (supra-MTD)) was 2 patients. Also, the myocardial ischemia entry in series [8] (setting [14]) is recorded as “asymptomatic myocardial ischemia”. For the same molecule, the “recommended phase 2 dose” value in series [8] (setting [14]) is given as 30 mg/m^2. For the same molecule, the vascular effects entry in series [8] (2-hour infusion, related to peak drug concentration (Cmax), 2016 ASCO poster) is “dose-dependent vascular effects that were dose-limiting”. In addition, in series [8] (2-hour intravenous administration, phase I escalation study of WO2015/173341), the MTD is 60 mg/m^2.
